# Source: patent publication US8367653B2, “Azetidinyl diamides as monoacylglycerol lipase inhibitors” (Janssen Pharmaceutica NV, priority 2009, dated 2013)
# Where two headings read alike, the source gives them in different places.
# Experiments:
# [1] = tested on: CFA-induced paw radiant heat hypersensitivity; assay: CFA-Induced Paw Radiant Heat Hypersensitivity; type: in vivo; details: CFA thermal hypersensitivity, rat, 30 mg/kg p.o., HPβCD; group mean values; last time point 180 or 300 min
# Protocol: Each rat was placed in a test chamber on a warm glass surface and allowed to acclimate for approximately 10 min. A radiant thermal stimulus (beam of light) was then focused through the glass onto the plantar surface of each hind paw in turn. The thermal stimulus was automatically shut off by a photoelectric relay when the paw was moved or when the cut-off time was reached (20 sec for radiant heat at ˜5 amps). An initial (baseline) response latency to the thermal stimulus was recorded for each animal prior to the injection of complete Freund's adjuvant (CFA). […] Immediately following the post-CFA latency assessment, the indicated test compound or vehicle was administered orally.
# The percent reversal (% R) of hypersensitivity was calculated in one of two different ways: 1) using group mean values or 2) using individual animal values. More specifically:
# Method 2. For some compounds, the % R of hypersensitivity was calculated separately for each animal according to the following formula: % reversal=[(individual treatment response−individual CFA response)/(individual baseline response−individual CFA response)]×100. Results are given as a mean of the maximum % reversal values calculated for each individual animal.
# tail flick = details: intravenous delivery (Mechoulam et al. 1995); cited from earlier work
# hot plate = details: cited from earlier work
# [2] = tested on: murine model of acute inflammation; details: Comelli et al. 2007; cited from earlier work
# [3] = target: T1, MGL (rat brain homogenate) (Rattus norvegicus, UniProt Q8R431); assay: 2-AG Accumulation Assay in rat brain homogenate; type: biochemical; details: 0.25 h, compound 1 μM, percent of vehicle 2-AG accumulation, read-out: Rat Brain 2AG % VehCntrl (%) @1 μM
# T1 construct: pre-incubated with rat brain homogenate (50 mg); from tissue; host or cells: rat brain homogenate
# T1 sequence (Q8R431 1-303): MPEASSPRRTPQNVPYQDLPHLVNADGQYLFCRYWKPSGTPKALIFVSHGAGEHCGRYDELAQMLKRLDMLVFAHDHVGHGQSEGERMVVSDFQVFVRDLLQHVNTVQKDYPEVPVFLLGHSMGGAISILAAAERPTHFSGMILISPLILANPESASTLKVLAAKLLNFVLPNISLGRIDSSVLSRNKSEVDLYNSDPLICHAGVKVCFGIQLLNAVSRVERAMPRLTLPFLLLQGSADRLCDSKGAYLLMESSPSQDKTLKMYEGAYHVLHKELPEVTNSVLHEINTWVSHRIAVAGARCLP
smiles,measurement,setting,value
O=C(c1ccc(-c2cccc(C(F)(F)F)c2)c(Cl)c1)N1CC(N2CCN(C(=O)c3cscn3)CC2)C1 [Cpd 1102],Method 1: peak % reversal,[1],38%
"CCCCC/C=C\C/C=C\C/C=C\C/C=C\CCCC(=O)OC(CO)CO [2-AG, 2-arachidinoylglycerol]",analgesia in the tail flick assay,tail flick,produces analgesia
same,analgesia in the hot plate assay,hot plate; combined with 2-linoleoyl glycerol and 2-palmitoyl glycerol (Ben-Shabat et al. 1998),significant analgesia
same,analgesia in the hot plate assay,hot plate; given alone (Ben-Shabat et al. 1998),not analgesic
same,analgesia in the hot plate assay,hot plate; intravenous delivery (Lichtman et al. 2002),produces analgesia
O=C(Nc1cccc(-c2ccccc2)c1)OC1CCCCC1 [URB602],antinociceptive effect,[2],antinociceptive effect
C/C(=C\c1ccc(Cl)cc1)c1c(C)c(C(=O)N2CC(N3CCN(C(=O)c4nccs4)CC3)C2)nn1-c1ccc(Cl)cc1Cl [Cpd 1010],Method 1: peak % reversal,[1],23.4%
"Cc1ccc(-n2ccc3cc(C(=O)N4CC(N5CCN(C(=O)c6nccs6)CC5)C4)ccc32)nc1 [Cpd 1073, 1-(5-Methylpyridin-2-yl)-5-({3-[4-(1,3-thiazol-2-ylcarbonyl)piperazin-1-yl]azetidin-1-yl}carbonyl)-1H-indole]",activity at 1 µM,[3],749%
